Patent US4260758A, “Pyrazolo (3,4-d) pyrimidines and methods of making” (Burroughs Wellcome Co., priority 1979, dated 1981)

System: Eimeria Tenella (Weybridge) sporozites
Assay: in vitro anti-coccidial activity, primary explant cultures of chick embryo liver cells with sporozites
Type: cell-based
Conditions: with sulphaquinoxaline 0.01 μg/ml and diaveridine 0.031 μg/ml
Description: The anti-coccidial activity of compounds of formula (III) alone and in combination with a mixture of diaveridine (DV) and sulphaquinoxaline (SQX) in vitro was tested according to the following procedure.
Using standard test procedures employing primary explant cultures of chick embryo liver cells and a suspension of Eimeria Tenella (Weybridge) sporozites the activity of the compounds was determined at various concentrations. In the above test, each test compound was used either alone or in combination with sulphaquinoxaline (0.01 μg/ml) and diaveridine (0.031 μg/ml). It should be noted that the minimum active anti-coccidial amounts of sulphaquinoxaline and diaveridine are 0.024 μg/ml and 0.098 μg/ml respectively.
The following results were obtained wherein activity is expressed as follows: […]

Structure (SMILES) | Activity, with DV/SQX (100 μg/ml) | Activity, with DV/SQX (25 μg/ml)
COC(=O)C1=NN(C)c2nc(N)[nH]c(=O)c2C(c2cc(OC)c(OC)c(OC)c2)=C1 [Example 6, 8-Amino-3-carbomethoxy-1-methyl-5-(3,4,5-trimethoxyphenyl)-1H-pyrimido{4,5-c}-1,2-diazepin-6(7H)-one] | 5 (No parasite development) | –
CCOC(=O)C1=NN(C)c2nc(N)[nH]c(=O)c2C(c2ccc(OC)cc2OC)=C1 [Example 7, 8-Amino-3-carbethoxy-1-methyl-5-(2,4-dimethoxyphenyl)-1H-pyrimido{4,5-c}-1,2-diazepin-6(7H)-one] | 5 (No parasite development) | 5 (No parasite development)
